Assay results published in patent US20170247409A1, “ABIETANE-TYPE DITERPENOIDS” (UNIVERSITY OF HELSINKI, priority 2014, published 2017).
pIC50: −log10 of the molar value. Values after ≈ are worked out from the molar mass of the structure shown. Where two headings read alike, the source gives them in different places.

How the values were obtained:
[1] = system: S. epidermidis ATCC 35984; experiment: Anti-biofilm activity against S. epidermidis ATCC 35984; type: cell-based, Staphylococcus epidermidis; details: tested at IC50 conc. measured against S. aureus ATCC 25923
Description: (§1) Four of the compounds were also tested against gram-negative E. coli biofilms as well as other Staphylococcal strains, at the corresponding IC50 values measured against S. aureus ATCC 25923 (Table 4). […] Nonetheless, all the compounds presented below were found active against S. epidermidis (ATCC 12228 and ATCC 35984) strains (Table 3).

[2] = system: S. aureus ATCC 25923 biofilms; experiment: Membrane depolarization in biofilms, DiBAC4(3) probe; type: cell-based, Staphylococcus aureus; details: 1 h exposure to the biofilms (FIG. 2B)
Text: (§2) A: quantification of ATP release from the S. aureus ATCC 25923 biofilms using the BacTiter-Glo bioluminescent assay. B: quantification of membrane depolarization in treated biofilms by the potential-sensitive DiABC(4)3 probe; this probe can only enter depolarized cells, where it experienced an enhanced fluorescence signal upon binding to intracellular proteins. For statistical comparisons between the treated and untreated samples, an unpaired t-test with Welch's correction was used, using GraphPad Prism (v 5.0 for Mac OS X).
(§3) ATP release from the biofilms after 1 h exposure to compounds 22 and 25 at 100 μM was quantified on the culture media, using the BacTiter-Glo bioluminescent assay. […] ATP release can be often associated to membrane depolarization events. Here, such events were followed by the increase in fluorescence emission of the DiBAC4(3) probe, as in Okuda et al. (2013).

E. coli XL1 blue = experiment: Anti-biofilm activity against E. coli XL1 blue biofilms; type: cell-based, Escherichia coli; details: tested at IC50 conc. measured against S. aureus ATCC 25923
Description: as §1

S. aureus Newman = experiment: Anti-biofilm potency against S. aureus Newman biofilms; type: cell-based, Staphylococcus aureus; details: Staphylococcus aureus, S. aureus Newman; for IC50: value in parentheses
Text: In fact, only 2-3 fold-higher concentrations of the compounds were needed to kill existing biofilms, in comparison to inhibiting bacterial colonization. […] Anti-biofilm potencies were all in the micromolar range and they were particularly significant for compound 22. […] The activity was also confirmed against S. aureus Newman strain. Potency values calculated for the S. aureus Newman (Table 3) were very similar to the values registered for S. aureus ATCC 25923.

single-cell bacteria = experiment: Antibacterial activity (MIC) against single-cell (planktonic) bacteria; type: cell-based; details: Staphylococcus aureus, in the absence of biofilms, strain not stated
Text: We selected six of the active compounds in the post-exposure assays namely, compounds 20, 21, 22, 25, 31 and 32 for the follow-up studies. […] In this mode of the assay, the interaction of the compounds occurs initially with single-cell bacteria (that is, a planktonic solution) before biofilms are formed. Therefore, we tested additionally if the compounds could exert antibacterial activity against single-cell bacteria, in the absence of biofilms. Based solely on conventional MIC and MBC values, antibacterial activities against single-cell bacteria were also high for the derivatives. […] The antibacterial activity order 22>21>25>31>20>32 correlated very well with the measured activity in preventing biofilm formation.

[3] = system: S. aureus ATCC 25923 biofilms; experiment: Anti-biofilm viability assay with redox dye, pre- and post-exposure, S. aureus ATCC 25923 biofilms; type: cell-based, Staphylococcus aureus; details: for pIC50 / IC50 / inhibition at 400 µM: S. aureus ATCC 25923; for IC50: value in parentheses; for inhibition at 400 µM: ATCC25923; for reduction of the viable biofilm cells: time-course on existing biofilms, within the first hour (FIG. 1)
HL cells [4] = experiment: Biocompatibility index (LC50 in HL cells / concentration causing 3-log reduction of planktonic bacteria); type: cell-based, human; details: ratio LC50 (HL cells) / concentration causing 3-log reduction in planktonic bacterial burden
Description: Additionally, the biocompatibility index (BI) was calculated for compound 22, to assess the overall impact of its antimicrobial activity, using an adaptation of the equation described for antiseptics by Muller and Kramer, 2008. BI, as originally defined by these authors, is a dimensionless parameter resulting from the ratio of the in vitro cytotoxicity values (in this case, half-lethal concentrations, LC50) to the concentration of the compound causing a 3-log reduction in the viable counts of suspended bacteria. Compounds with BI<1 are deemed as less promising, due to their potential toxic effects. Thus BI is a very useful tool for the quick exclusion of undesired toxic scaffolds or weak hits in early stage of development of anti-biofilm molecules. For the determination of the BI, acute cytotoxicity of compound 22 was measured in the same cell line described earlier (HL cells), using the resazurin assay as in Karlsson et al, 2012. The ratio of the half lethal concentration (LC50) and the concentration causing 3-log reduction in the planktonic bacterial burden was calculated (both expressed in […]), as below:
The BI value of compound 22 was clearly higher than 1, which is indicative of an adequate combination of an effective anti-biofilm activity with a low cytotoxicity. It is thus expected that toxic effects can be minimized in the host organisms exposed to compound 22.

[5] = system: S. aureus ATCC 25923 biofilms; experiment: Viable plate counts and Log Reduction of S. aureus ATCC 25923 biofilms; type: cell-based, Staphylococcus aureus; details: 400 μM, viable plate counts
Description: The viability of S. aureus (ATCC 25923) biofilms left upon exposure to compounds 20, 21, 22 and 25 was determined using viable plate counts and calculating the Log Reduction (Log R) value. This procedure involves scrapping the biofilms off the substrate, disaggregating them by sonication and plating the resulting suspension in agar. The method is highly laborious but it is the gold standard for the quantification of anti-biofilm efficacy (Pitts et al. 2003). […] Of note, a log R value of 2 represents a reduction of 99% of the viable cells in the biofilms, and typically, a log R of 3 is considered a relevant indicator of the compound efficacy as an anti-biofilm agent.

[6] = system: S. epidermidis ATCC 12228; experiment: Anti-biofilm activity against S. epidermidis ATCC 12228; type: cell-based, Staphylococcus epidermidis; details: tested at IC50 conc. measured against S. aureus ATCC 25923
Description: as §1

[7] = system: S. aureus ATCC 25923 biofilms; experiment: ATP release from biofilms, BacTiter-Glo bioluminescent assay; type: cell-based, Staphylococcus aureus; details: 100 μM; 1 h exposure (FIG. 2A)
Text: as §2, §3

HL cells [8] = experiment: Tolerability of mammalian cells, resazurin viability assay; type: cell-based, human; details: 24 hours exposure, HL cells
Description: Viability values were measured in acute conditions (24 hours exposure) using the resazurin assay as in Karlsson et al, 2012 (Eur J Pharm Sci. 2012 Aug 30;47(1):190-205). […] The least tolerated molecule was 25, as only 23% (±5.9) of cells remained viable upon exposure to 100 μM. However, concentrations up to 30 μM caused no cytotoxicity (90.2% of viable cells, ±0.5).

[9] = read-out: Potency, IC50 Post-biofilm formation
[10] = read-out: Potency, IC50 Prior-to-biofilm formation
[11] = Staphylococcus aureus, ATCC25923, 50% inhibition of biofilm viability, read-out: Potency, IC50 Prior-to-biofilm formation
[12] = Staphylococcus aureus, ATCC25923, 24 h, measured 24 hours after adding to existing biofilms, read-out: Potency, IC50 Post-biofilm formation
[13] = Staphylococcus aureus, post-exposure, read-out: % Inhibition 400 μM POST
[14] = Staphylococcus aureus, pre-exposure, read-out: % Inhibition 400 μM PRE

Structure (SMILES)	Inhibition percentage (±SD) Post-biofilm formation [1]	Inhibition percentage (±SD) Prior-to-biofilm formation [1]	membrane depolarization [2]	Inhibition percentage (±SD) Post-biofilm formation (E. coli XL1 blue)	Inhibition percentage (±SD) Prior-to-biofilm formation (E. coli XL1 blue)	pIC50 (S. aureus Newman; [9])	pIC50 (S. aureus Newman; [10])	IC50 (S. aureus Newman; [9])	IC50 (S. aureus Newman; [10])	MIC (single-cell bacteria)	pIC50 [3, 11]	IC50 [3, 11]	IC50 [3, 12]	inhibition at 400 µM [3, 13]	inhibition at 400 µM [3, 14]	reduction of the viable biofilm cells [3]	Log Reduction (average ±SD) [5]	Inhibition percentage (±SD) Post-biofilm formation [6]	Inhibition percentage (±SD) Prior-to-biofilm formation [6]	ATP release from the biofilms [7]	other results
CC(C)c1ccc2c(c1)CC[C@H]1[C@](C)(C(=O)N[C@@H](CC3CCCCC3)C(=O)O)CCC[C@]21C [Compound 22, N-(Abiet-8,11,13-trien-18-oyl) Cyclohexyl-L-alanine]	1.9 (±5.7) %	48.8 (±4.8) %	caused membrane depolarization	14.2 (±13.1) %	5.2 (±11.3) %	4.32	5.10	21.9 mg/L	3.6 mg/L	6.8 mg/L (≈ 15 µM)	5.03	4.2 mg/L	12.7 mg/L	99.6%	100%	~50%	2.3 (±0.1)	4.4 (±5.8) %	42.3 (±9.5) %	highly significant ATP leakage	biocompatibility index (BI) (HL cells [4]): higher than 1
CC(C)c1ccc2c(c1)CC[C@H]1[C@](C)(C(=O)N[C@H](Cc3c[nH]c4ccccc34)C(=O)O)CCC[C@]21C [Compound 25, N-(Abiet-8,11,13-trien-18-oyl) D-tryptophan]	38.0 (±9.3) %	66.9 (±0.9) %	caused membrane depolarization	6.7 (±7.2) %	8.7 (±5.6) %	4.14	4.68	34.9 mg/L	10.2 mg/L	29.3 mg/L (≈ 60.2 µM)	4.48	16.2 mg/L	41.9 mg/L	102%	102%	~50%	6.2 (±0.4)	48.8 (±10.3) %	70.3 (±5.6) %	highly significant ATP leakage	pIC50 [3, 12]: > 4.00; pIC50 ([3]; measured 24 hours after adding to existing biofilms, read-out: Potency, IC50 Post-biofilm formation): 4.06; viable cells (HL cells [8]; 100 μM): 23%; viable cells (HL cells [8]; concentrations up to 30 μM): 90.2%
